In patent publication US9283234B2, “Compositions and methods for suppressing endometrial proliferation” (REPROS THERAPEUTICS INC., priority 2006, dated 2016):

Assays:
[1] = molecular target: T1, glucocorticoid receptor (rbGR) (Oryctolagus cuniculus, UniProt P59667); test: glucocorticoid receptor binding; design: species or system rabbit
T1 construct: cytosol containing PR or GR were prepared in TEGMD buffer; from tissue; host or cells: thymus of estradiol-primed immature rabbits (cytosol)
T1 sequence (P59667 1-772): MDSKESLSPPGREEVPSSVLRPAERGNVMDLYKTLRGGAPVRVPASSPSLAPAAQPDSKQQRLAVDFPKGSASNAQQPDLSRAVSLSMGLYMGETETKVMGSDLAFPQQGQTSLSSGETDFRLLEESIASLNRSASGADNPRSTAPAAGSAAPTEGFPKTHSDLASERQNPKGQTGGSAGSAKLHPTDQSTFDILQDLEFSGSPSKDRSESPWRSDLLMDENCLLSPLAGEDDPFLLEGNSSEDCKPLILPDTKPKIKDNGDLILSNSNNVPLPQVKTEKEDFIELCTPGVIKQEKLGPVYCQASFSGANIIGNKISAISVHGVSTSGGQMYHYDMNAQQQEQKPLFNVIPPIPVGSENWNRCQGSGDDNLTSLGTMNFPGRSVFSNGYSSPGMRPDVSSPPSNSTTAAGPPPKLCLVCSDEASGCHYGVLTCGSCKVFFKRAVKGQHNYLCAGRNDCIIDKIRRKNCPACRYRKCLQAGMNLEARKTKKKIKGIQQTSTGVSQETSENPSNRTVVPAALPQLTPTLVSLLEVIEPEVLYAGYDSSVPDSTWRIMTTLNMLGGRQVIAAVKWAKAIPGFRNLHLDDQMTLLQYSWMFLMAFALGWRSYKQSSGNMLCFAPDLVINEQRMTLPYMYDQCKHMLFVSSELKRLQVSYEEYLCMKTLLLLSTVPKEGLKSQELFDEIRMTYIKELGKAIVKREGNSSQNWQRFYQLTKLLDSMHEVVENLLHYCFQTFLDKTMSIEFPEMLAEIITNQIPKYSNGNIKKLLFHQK
Protocol: Certain antiprogestins were tested in receptor-binding assays for their ability to bind rabbit progesterone receptor (rbPR) and glucocorticoid receptor (rbGR). […] For PR binding, the cytosol was incubated with 6 nM 1,2-[^3H]progesterone (50.0 Ci/mmole) and competitors were added at concentrations from 2 to 100 nM. For binding to GR, the cytosol was incubated with 6 nM 6,7-[^3H]-dexamethasone (40 Ci/mmol) and test compounds were added at concentrations from 20 to 100 nM. After overnight incubation at 4 C, bound and unbound [^3H] steroids were separated by addition of dextran-coated charcoal and centrifugation at 2100×g for 15 min at 4 C. Supernatants containing the [^3H]-steroid receptor complexes were decanted into vials containing 4 ml OPTIFLUOR scintillation fluid (Packard Instrument Co.), vortexed, equilibrated in a liquid scintillation counter for 30 minutes and then counted for 2 minutes. […] The standards for the PR and GR assays were unlabeled progesterone and dexamethasone, respectively.

[2] = estrogenic, androgenic, anti-estrogenic and anti-androgenic activities
Source text: These methods include receptor binding and in vivo bioassays such as anti-McGinty, anti-Clauberg, glucocorticoid, estrogenic, androgenic, anti-glucocorticoid (AG), anti-estrogen, and anti-androgen activities as well as post-coital and anti-ovulatory activities where in the leading compounds of the instant invention are used as a reference.

[3] = Measuring serum cortisol in rats; format: in vivo; settings: 10 mg/kg, 21 days of chronic dosing, FIG. 1
rabbit uterus = test: anti-McGinty and anti-Clauberg assays; format: in vivo; settings: average of anti-McGinty and anti-Clauberg results relative to CDB-2914 (=1.00)
Source text: Also given in Table 1 are the relative biological activities of the same compounds in the rabbit uterus by the anti-McGinty and anti-Clauberg assays. Compound CDB-2914 (listed at the end of the Table) was used as the control or reference compound (rabbit Biological Activity=1.00) for these experiments because results of experiments using CDB-2914 have been published before (Hild-Petito et al., 1996; Passaro et al., 1997; Reel et al., 1998; Larner et al., 2000). For the anti-McGinty test, immature female rabbits received a subcutaneous injection of 5 μg estradiol in 10% ethanol/sesame oil daily for 6 consecutive days. On day 7, animals underwent sterile abdominal surgery to ligate a 3-4 cm segment of both uterine horns. The test compound in appropriate solvent was injected intraluminally into the ligated segment of one uterine horn and vehicle alone into the other. A stimulating dose of progesterone (267 μg/day) was administered subcutaneously to each rabbit daily for the next three days to induce endometrial proliferation. All animals were sacrificed at day 10 for removal of the uterus where a segment central to the ligatures was removed and fixed in 10% neutral buffered formalin and submitted for histological processing. Five micron sections stained with hematoxylin and cosin were evaluated microscopically for the degree of endometrial glandular proliferation. The percent inhibition of endometrial proliferation for each rabbit was calculated and the mean of the group of five animals recorded. For the Anti-Clauberg test, immature female rabbits received a subcutaneous injection of 5 μg estradiol in 10% ethanol/sesame oil daily for 6 consecutive days. On day 7, animals received progesterone by subcutaneous injection (160 μg/day) and the experimental compound in appropriate vehicle orally or subcutaneously for five consecutive days. One group of rabbits received progesterone only. […] Five micron sections stained with hematoxylin and eosin were evaluated microscopically for the degree of endometrial glandular proliferation. […]

[4] = tested on: rabbit progesterone receptor (rbPR) and glucocorticoid receptor (rbGR); test: Receptor-binding assays, ratio of relative binding affinities rbPR/rbGR; settings: ratio of relative binding affinities (RBA = EC50 of standard/EC50 of test compound x100) for rbPR and rbGR; standards progesterone, dexamethasone
Protocol: Certain antiprogestins were tested in receptor-binding assays for their ability to bind rabbit progesterone receptor (rbPR) and glucocorticoid receptor (rbGR). Briefly, cytosol containing PR or GR were prepared in TEGMD buffer (10 mM Tris, pH 7.2, 1.5 mM EDTA, 0.2 mM sodium molybdate, 10% glycerol, 1 mM DTT) from uterus or thymus, respectively, of estradiol-primed immature rabbits. For PR binding, the cytosol was incubated with 6 nM 1,2-[^3H]progesterone (50.0 Ci/mmole) and competitors were added at concentrations from 2 to 100 nM. For binding to GR, the cytosol was incubated with 6 nM 6,7-[^3H]-dexamethasone (40 Ci/mmol) and test compounds were added at concentrations from 20 to 100 nM. After overnight incubation at 4 C, bound and unbound [^3H] steroids were separated by addition of dextran-coated charcoal and centrifugation at 2100×g for 15 min at 4 C. Supernatants containing the [^3H]-steroid receptor complexes were decanted into vials containing 4 ml OPTIFLUOR scintillation fluid (Packard Instrument Co.), vortexed, equilibrated in a liquid scintillation counter for 30 minutes and then counted for 2 minutes. The EC50 (Effective Concentration) for each standard curve and each of the compound curves was determined by entering the counting data into a four parameter sigmoidal computer program ([…] Immunoassay Data Reduction Program, Packard Instrument Co., Meriden, Conn.). Relative binding affinity (RBA) for each compound was calculated using the following equation: EC50 of standard/EC50 of test compound×100. The standards for the PR and GR assays were unlabeled progesterone and dexamethasone, respectively. The results of these experiments are summarized in Table 1, as a ratio of the relative binding affinities of each compound for the rbPR and rbGR receptors (rbPR/rbGR).

[5] = tested on: pain associated with endometriosis; test: Six month endometriosis study: pain diaries and symptom surveys; format: in vivo, pre-menopausal adult women; design: key to score for intensity of pain on a bad day: 0-10 scale; 0 = no pain, 10 = extreme pain
Protocol: Pain reduction also occurred more rapidly than with the active control, LUCRIN. The response of pain to treatment in this study was analyzed in two ways. Patients in the study maintained daily pain diaries to record the severity and frequency of pain. In addition, at each office visit, patients filled out endometriosis symptom surveys that included a questionnaire that evaluated intensity of pain on a bad day on a scale of 0-10 with 10 being the greatest intensity. […] There appeared to be a dose dependent effect on pain reduction. […] This decrease in duration of pain was statistically better (p=0.0012) than the 117.8 (74%; standard deviation 51.4 days) pain free days achieved with LUCRIN. […] Patients on CDB-4124 12.5 mg and 25 mg doses had 115.9 (66%; standard deviation 69.2 days) and 133.6 (75%; standard deviation 27.4 days) pain free days, respectively. […] The 25 mg and 12.5 mg doses of CDB-4124 were not statistically different from LUCRIN. […] The intensity of pain was asked by the question: “On a scale of 1-10, with 0 being no pain and 10 being extreme pain, how intense was your pain on a bad day?” The mean scores for intensity of pain at baseline were 6.3 for the CDB-4124 groups and 6.1 for the LUCRIN group. […] At month three all four active treatment groups had statistically significant reduction in pain compared with baseline, with the following scores: 3.7 (p=0.03) for 12.5 mg CDB-4124, 3.2 (p=0.03) for 25 mg CDB-4124, 1.6 (p=0.015) for 50 mg CDB-4124 and 1.5 (p=0.016) for LUCRIN. These dose related reductions continued until month six when the values for pain intensity were 2.0 (p=0.008), 2.8 (p=0.023), 0.6 (p=0.004) and 0.7 (p=0.016), respectively. Two months after stopping treatment pain returned and was of similar intensity in all four treatment groups.

endometrium = test: Six month endometriosis study: endometrial thickness (ultrasound) / endometrial proliferation; format: in vivo, pre-menopausal adult women; settings: LUPRON once per month
Source text: Comparisons were made to both baseline and visit one ultrasound measurements of endometrial thickness. […]

[6] = Measuring serum corticosterone in rats; settings: progesterone, CDB-4124 and RU-486 groups compared

Question: With `CC(=O)O[C@]1(C(C)=O)CC[C@H]2[C@@H]3CCC4=CC(=O)CCC4=C3[C@@H](c3ccc(N(C)C)cc3)C[C@@]21C` [CDB-2914, 17α-acetoxy-11β-(4-N,N-dimethylaminophenyl)-19-norpregna-4,9-dien-3,20-dione] as the molecule, how does the “anti-glucocorticoid receptor activity / glucocorticoid receptor binding” value [1] read?
Answer: Its value is “moderately active in glucocorticoid receptor binding”.

Question: Which “estrogenic, androgenic, anti-estrogenic, and anti-androgenic activities” value [2] does the source give for `CC(=O)OCC(=O)[C@@]1(OC(C)=O)CCC2C3CCC4=CC(=O)CCC4=C3C(c3ccc(N(C)C)cc3)C[C@@]21C` (stereo partly drawn) [CDB-4059, 21-acetoxy-17α-acetoxy-1,3-(4 N,N-dimethylaminophenyl)-19-norpregna-4,9-diene-3,20-dione] here?
Answer: Its value is “lack”.

Question: What about the “serum cortisol versus control group” value [3] of the same molecule?
Answer: The value was “significantly higher levels of serum cortisol”.

Question: For `COCC(=O)[C@@]1(OC(C)=O)CCC2C3CCC4=CC(=NO)CCC4=C3C(c3ccc(N(C)C)cc3)C[C@@]21C` (stereo partly drawn) [CDB-4205, 3-hydroxyamino-2′-methoxy-17α-acetoxy-11β-(4 N,N-dimethylaminophenyl)-19-norpregna-4,9-diene-3,20-dione], which “rabbit Biol. Act.” value (rabbit uterus) is on record?
Answer: The value was 1.00.

Question: And the rbPR/rbGR [4]?
Answer: Its rbPR/rbGR is 1.99.

Question: What does the source list for `CC(=O)OCC(=O)[C@@]1(OC(C)=O)CCC2C3CCC4=CC(=NO)CCC4=C3C(c3ccc(N(C)C)cc3)C[C@@]21C` (stereo partly drawn) [CDB-4206, 3-hydroxyamino-2′-acetoxy-17α-acetoxy-11β-(4 N,N-dimethylaminophenyl)-19-norpregna-4,9-diene-3,20-dione]?
Answer: rabbit Biol. Act. (rabbit uterus): 0.68; rbPR/rbGR [4]: 1.44

Question: Which results are given for `CCOCC(=O)[C@@]1(OC(C)=O)CCC2C3CCC4=CC(=NO)CCC4=C3C(c3ccc(N(C)C)cc3)C[C@@]21C` (stereo partly drawn) [CDB-4226, 3-hydroxyamino-21-ethyloxy-17α-acetoxy-11β-(4 N,N-dimethylaminophenyl)-19-norpregna-4,9-diene-3,20-dione]?
Answer: rabbit Biol. Act. (rabbit uterus): 0.54; rbPR/rbGR [4]: 1.51

Question: What does the source list for `CCNC(=O)[C@@H]1CCCN1C(=O)[C@H](CCCNC(=N)N)NC(=O)[C@H](CC(C)C)NC(=O)[C@@H](CC(C)C)NC(=O)[C@H](Cc1ccc(O)cc1)NC(=O)[C@H](CO)NC(=O)[C@H](Cc1c[nH]c2ccccc12)NC(=O)[C@H](Cc1c[nH]cn1)NC(=O)[C@@H]1CCC(=O)N1` [LUPRON, leuprolide acetate, reference compound]?
Answer: percent pain free days over the 180 day treatment period ([5]; LUCRIN once per month): 74%; distress related to pain over the six month exposure ([5]; all doses, on average): reduced distress related to pain; mean score for intensity of pain on a bad day ([5]; baseline, scale 0-10): 6.1; score for intensity of pain on a bad day ([5]; month six, LUCRIN once per month): 0.7; score for intensity of pain on a bad day ([5]; month three, LUCRIN once per month): 1.5; Endometrium (mm) 1st dose (endometrium; 1st dose): 7.5 mm; Endometrium (mm) 3 months (endometrium; 3 months): 2.75 mm; Endometrium (mm) screening (endometrium; screening): 7.9 mm

Question: With `CC#C[C@]1(O)CC[C@H]2[C@@H]3CCC4=CC(=O)CCC4=C3[C@@H](c3ccc(N(C)C)cc3)C[C@@]21C` [RU 486, 11β-[p-(Dimethylamino)phenyl]-17β-hydroxy-17-(1-propynyl)estra-4,9-dien-3-one, reference compound] as the molecule, how does the “anti-glucocorticoid receptor activity / glucocorticoid receptor binding” value [1] read?
Answer: Its value is “moderately active in glucocorticoid receptor binding”.

Question: What about the “differences in serum corticosterone between treatment groups” value [6] of the same molecule?
Answer: The value was “No differences in serum corticosterone”.

Question: And the “serum cortisol versus control group” value [3]?
Answer: Its value is “no significant difference in the levels of cortisol”.

Question: With `CC(=O)[C@H]1CC[C@H]2[C@@H]3CCC4=CC(=O)CC[C@]4(C)[C@H]3CC[C@]12C` [progesterone, reference compound] as the molecule, how does the “differences in serum corticosterone between treatment groups” value [6] read?
Answer: The value was “No differences in serum corticosterone”.
